Legend:
A549/ATCC = assay: NCI-60 one-dose SRB screen (Non-Small Cell Lung Cancer); assay type: cell-based; settings: Homo sapiens, single dose 10 µM, 48 h, read-out: Growth inhibition percent (GI %)
Procedure: (§1) The National Cancer Institute (NCI) Developmental Therapeutic Program (www.dtp.nci.nih.gov) selected the 20 novel synthesized compounds 4a-e, 5a-e, 6a-c, 9a-e, 10 and 11 to test for their anticancer activity at a single dose of 10 µM using SRB assay. […] Supplementary Data S3; Table S1 presents the detailed screening results of the most promising compounds. The preliminary screening’s detailed results for the remaining compounds are elucidated in the (Supplementary Data S3; Table S2).
(§2) The guidelines of the Drug Evaluation Branch’s protocol at the NCI in Bethesda served as the basis for the in vitro anticancer screening assays. at one dose 10 µM against a panel of 60 cancer cell lines. The human tumor cell lines used belonged to nine panels: leukemia, melanoma, lung, colon, CNS, ovarian, renal, prostate and breast cancers using the sulforhodamine B (SRB) assay in a 48 h drug exposure protocol.

EKVX = assay: as above; assay type: cell-based; settings: Homo sapiens, single dose 10 µM, 48 h, read-out: Growth inhibition percent (GI %)
Procedure: as §1, §2

HOP-62 = assay: as above; assay type: cell-based; settings: Homo sapiens, single dose 10 µM, 48 h, read-out: Growth inhibition percent (GI %)
Procedure: as §1, §2

HOP-92 = assay: as above; assay type: cell-based; settings: Homo sapiens, single dose 10 µM, 48 h, read-out: Growth inhibition percent (GI %)
Procedure: as §1, §2

NCI-H226 = assay: as above; assay type: cell-based; settings: Homo sapiens, single dose 10 µM, 48 h, read-out: Growth inhibition percent (GI %)
Procedure: as §1, §2

NCI-H23 = assay: as above; assay type: cell-based; settings: Homo sapiens, single dose 10 µM, 48 h, read-out: Growth inhibition percent (GI %)
Procedure: as §1, §2

NCI-H322M = assay: as above; assay type: cell-based; settings: Homo sapiens, single dose 10 µM, 48 h, read-out: Growth inhibition percent (GI %)
Procedure: as §1, §2

NCI-H460 = assay: as above; assay type: cell-based; settings: Homo sapiens, single dose 10 µM, 48 h, read-out: Growth inhibition percent (GI %)
Procedure: as §1, §2

NCI-H522 = assay: as above; assay type: cell-based; settings: Homo sapiens, single dose 10 µM, 48 h, read-out: Growth inhibition percent (GI %)
Procedure: as §1, §2

SF-268 = assay: NCI-60 one-dose SRB screen (CNS Cancer); assay type: cell-based; settings: Homo sapiens, single dose 10 µM, 48 h, read-out: Growth inhibition percent (GI %)
Procedure: as §1, §2

SF-295 = assay: NCI-60 one-dose SRB screen (CNS Cancer); assay type: cell-based; settings: Homo sapiens, single dose 10 µM, 48 h, read-out: Growth inhibition percent (GI %)
Procedure: as §1, §2

SF-539 = assay: NCI-60 one-dose SRB screen (CNS Cancer); assay type: cell-based; settings: Homo sapiens, single dose 10 µM, 48 h, read-out: Growth inhibition percent (GI %)
Procedure: as §1, §2

SNB-19 = assay: NCI-60 one-dose SRB screen (CNS Cancer); assay type: cell-based; settings: Homo sapiens, single dose 10 µM, 48 h, read-out: Growth inhibition percent (GI %)
Procedure: as §1, §2

SNB-75 = assay: NCI-60 one-dose SRB screen (CNS Cancer); assay type: cell-based; settings: Homo sapiens, single dose 10 µM, 48 h, read-out: Growth inhibition percent (GI %)
Procedure: as §1, §2

U251 = assay: NCI-60 one-dose SRB screen (CNS Cancer); assay type: cell-based; settings: Homo sapiens, U-251, single dose 10 µM, 48 h, read-out: Growth inhibition percent (GI %)
Procedure: as §1, §2

OVCAR-5 = assay: NCI-60 one-dose SRB screen (Ovarian cancer); assay type: cell-based; settings: Homo sapiens, single dose 10 µM, 48 h, read-out: Growth inhibition percent (GI %)
SK-OV-3 = assay: NCI-60 one-dose SRB screen (Ovarian cancer); assay type: cell-based; settings: Homo sapiens, single dose 10 µM, 48 h, read-out: Growth inhibition percent (GI %)

Row | Compound | inhibition at 10 µM (A549/ATCC) [%] | inhibition at 10 µM (EKVX) [%] | inhibition at 10 µM (HOP-62) [%] | inhibition at 10 µM (HOP-92) [%] | inhibition at 10 µM (NCI-H226) [%] | inhibition at 10 µM (NCI-H23) [%] | inhibition at 10 µM (NCI-H322M) [%] | inhibition at 10 µM (NCI-H460) [%] | inhibition at 10 µM (NCI-H522) [%] | inhibition at 10 µM (SF-268) [%] | inhibition at 10 µM (SF-295) [%] | inhibition at 10 µM (SF-539) [%] | inhibition at 10 µM (SNB-19) [%] | inhibition at 10 µM (SNB-75) [%] | inhibition at 10 µM (U251) [%] | inhibition at 10 µM (OVCAR-5) [%] | inhibition at 10 µM (SK-OV-3) [%] | melting point [°C]
1 | COc1ccc(-c2nn(-c3ccc(S(N)(=O)=O)cc3)cc2C(=O)OCC(=O)Nc2ccc(S(N)(=O)=O)cc2)cc1 [Compound 4c, 2-Oxo-2-[(4-sulfamoylphenyl)amino] ethyl 3-(4-methoxyphenyl)-1-(4-sulfamoylphenyl)-1H-pyrazole-4-carboxylate] | < 5 | < 5 | < 5 | < 5 | < 5 | < 5 | < 5 | < 5 | < 5 | < 5 | < 5 | < 5 | < 5 | 28.7 | < 5 | < 5 | < 5 | 
2 | CS(=O)(=O)c1ccc(-c2nn(-c3ccc(S(N)(=O)=O)cc3)cc2C(=O)OCC(=O)Nc2ccc(S(N)(=O)=O)cc2)cc1 [Compound 4e, 2-Oxo-2-[(4-sulfamoylphenyl)amino] ethyl 3-(4-(methylsulfonyl)phenyl)-1-(4-sulfamoylphenyl)-1H-pyrazole-4-carboxylate] | 6.92 | < 5 | < 5 | < 5 | < 5 | < 5 | < 5 | < 5 | 23.1 | < 5 | < 5 | < 5 | < 5 | < 5 | < 5 | < 5 | < 5 | 132 to 135
3 | CCOC(=O)c1ccc(NC(=O)COC(=O)c2cn(-c3ccc(S(N)(=O)=O)cc3)nc2-c2ccc(OC)cc2)cc1 [Compound 5c, 2-[(4-(Ethoxycarbonyl)phenyl)amino]-2-oxoethyl 3-(4-methoxyphenyl)-1-(4-sulfamoylphenyl)-1H-pyrazole-4-carboxylate] | 39.4 | 42.2 | 12 | 26 | 26.7 | 17.5 | 9.97 | 28.8 | 31 | 28.5 | 32.7 | 38.7 | 30.7 | 49.3 | 34.3 | 13.7 | 11.6 | 121 to 124
4 | CCOC(=O)c1ccc(NC(=O)COC(=O)c2cn(-c3ccc(S(N)(=O)=O)cc3)nc2-c2ccc(Br)cc2)cc1 [Compound 5d, 2-[(4-(Ethoxycarbonyl)phenyl)amino]-2-oxoethyl 3-(4-bromophenyl)-1-(4-sulfamoylphenyl)-1H-pyrazole-4-carboxylate] | 62.9 | 62.5 | 26.2 | 72.1 | 48.3 | 49.4 | 21.2 | 65.7 | 64.9 | 64.1 | 57.5 | 63.3 | 57.9 | 74.9 | 57.9 | 38 | 29 | 
5 | CCOC(=O)c1ccc(NC(=O)COC(=O)c2cn(-c3ccc(S(N)(=O)=O)cc3)nc2-c2ccc(S(C)(=O)=O)cc2)cc1 [Compound 5e, 2-[(4-(Ethoxycarbonyl)phenyl)amino]-2-oxoethyl 3-(4-(methylsulfonyl)phenyl)-1-(4-sulfamoylphenyl)-1H-pyrazole-4-carboxylate] | < 5 | < 5 | < 5 | < 5 | < 5 | 8.79 | < 5 | < 5 | 13.5 | 5.8 | < 5 | 11.8 | 8.29 | 19.6 | 5.78 | 7.15 | < 5 | 127 to 130

— publication PMC12454493, “Insight on novel sulfamoylphenyl pyrazole derivatives as anticancer carbonic anhydrase inhibitors” (Molecular Diversity, 2024)
